The test system of the assay is L1210 leukemia ip in BDF1 mice, survival T/C. Put plainly: NCI In Vivo Anticancer Drug Screen. Data for tumor model L1210 Leukemia (intraperitoneal) in B6D2F1 (BDF1) mice. The note with it: endpoint: mean survival time, higher = longer survival. The method, boiled down: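 Ratio derived from survival: compound-dosed mice over vehicle-dosed mice, all bearing a transplantable tumor.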

Setting [1] is: dose: 100.0 mg/kg/injection, schedule: Q01DX009 (ip), vehicle: Klucel (hydroxypropylcellulose) (HPC).
[2] abbreviates: dose: 100.0 mg/kg/injection, schedule: Q04DX003 (ip), vehicle: Klucel (hydroxypropylcellulose) (HPC).
Setting [3] is: dose: 200.0 mg/kg/injection, schedule: Q01DX009 (ip), vehicle: Klucel (hydroxypropylcellulose) (HPC).
[4] abbreviates: dose: 200.0 mg/kg/injection, schedule: Q04DX003 (ip), vehicle: Klucel (hydroxypropylcellulose) (HPC).
Setting [5] is: dose: 400.0 mg/kg/injection, schedule: Q01DX009 (ip), vehicle: Klucel (hydroxypropylcellulose) (HPC).
Where [6] appears, read: dose: 400.0 mg/kg/injection, schedule: Q04DX003 (ip), vehicle: Klucel (hydroxypropylcellulose) (HPC).
[7] abbreviates: dose: 100.0 mg/kg/injection, schedule: Q01DX001 (ip), vehicle: saline with Tween-80.
[8] abbreviates: dose: 200.0 mg/kg/injection, schedule: Q01DX001 (ip), vehicle: saline with Tween-80.
Setting [9] is: dose: 400.0 mg/kg/injection, schedule: Q01DX001 (ip), vehicle: saline with Tween-80.

Several values for one entry are separate records, joined by “and”; a condition that tells them apart may be missing. Equal values may be shown once. Inconclusive results and toxic doses are left out.

Take `Cc1ccc(S(=O)(=O)N(CCCc2c(C)[nH]c(=S)[nH]c2=O)c2ccccc2)cc1`: the T/C runs as follows: (dose: 50.0 mg/kg/injection, schedule: Q04DX002 (ip), vehicle: Klucel (hydroxypropylcellulose) (HPC)) 91 % of control; (dose: 100.0 mg/kg/injection, schedule: Q04DX002 (ip), vehicle: Klucel (hydroxypropylcellulose) (HPC)) 100 % of control and 91 % of control; (dose: 200.0 mg/kg/injection, schedule: Q04DX002 (ip), vehicle: Klucel (hydroxypropylcellulose) (HPC)) 100 % of control and 91 % of control; (dose: 400.0 mg/kg/injection, schedule: Q04DX002 (ip), vehicle: Klucel (hydroxypropylcellulose) (HPC)) 100 % of control.
For the molecule `COc1ccc(C(C(N)=O)N2CCOCC2)cc1` (configuration not stated), the T/C under setting [1] was 98 % of control; the T/C under setting [2] was 95 % of control; the T/C under setting [3] was 100 % of control; the T/C under setting [4] is 98 % of control; the T/C under setting [5] was 97 % of control; the T/C under setting [6] was 104 % of control.
Take `O=c1c(Cl)c(-c2ccccc2)nc2ccccn12`: the T/C reads like this: (dose: 12.5 mg/kg/injection, schedule: Q01DX001 (ip), vehicle: saline with Tween-80) 100 % of control; (dose: 25.0 mg/kg/injection, schedule: Q01DX001 (ip), vehicle: saline with Tween-80) 110 % of control; (dose: 50.0 mg/kg/injection, schedule: Q01DX001 (ip), vehicle: saline with Tween-80) 93 % of control.
Regarding `Cc1ccccc1OCCO`, the T/C reads like this: (dose: 100.0 mg/kg/injection, schedule: Q04DX003 (ip), vehicle: saline) 101 % of control; (dose: 200.0 mg/kg/injection, schedule: Q04DX003 (ip), vehicle: saline) 97 % of control; (dose: 400.0 mg/kg/injection, schedule: Q04DX003 (ip), vehicle: saline) 106 % of control.
In the case of `Nc1nc(SCc2ccccn2)c2[nH]cnc2n1`, the T/C was 121 % of control (dose: 45.0 mg/kg/injection, schedule: Q04DX003 (ip), vehicle: Klucel (hydroxypropylcellulose) (HPC)); 124 % of control (dose: 65.0 mg/kg/injection, schedule: Q04DX003 (ip), vehicle: Klucel (hydroxypropylcellulose) (HPC)); 155 % of control under setting [6].
Turning to `CCc1c([N+](=O)[O-])oc2ccc(Cl)cc12`, the T/C was 103 % of control under setting [1], 105 % of control under setting [3] and 107 % of control under setting [5].
`COC(=S)Nc1cccc(OC(=O)NC(C)C)c1`: the T/C reads like this: under setting [7], 97 % of control; under setting [8], 95 % of control; under setting [9], 100 % of control.
As for `CN(CCC#N)c1ccc(/C=C(\C#N)c2ccc(Cl)cc2)cc1`, the T/C under setting [1] was 102 % of control, the T/C under setting [3] is 103 % of control and the T/C under setting [5] is 105 % of control.
For `O=C(O)COc1ccc(F)cc1Cl`, the T/C is, setting by setting: under setting [1], 93 % of control; under setting [2], 96 % of control; under setting [3], 96 % of control; under setting [4], 98 % of control; under setting [6], 94 % of control.
As for `O=C(CCCN1CCC(O)(c2ccc(Cl)cc2)CC1)c1ccc(F)cc1`, the T/C is, setting by setting: (dose: 1.25 mg/kg/injection, schedule: Q01DX009 (ip), vehicle: saline) 90 % of control; (dose: 2.5 mg/kg/injection, schedule: Q01DX009 (ip), vehicle: Klucel (hydroxypropylcellulose) (HPC)) 92 % of control; (dose: 2.5 mg/kg/injection, schedule: Q01DX009 (ip), vehicle: saline) 100 % of control; (dose: 2.5 mg/kg/injection, schedule: Q04DX003 (ip), vehicle: saline) 114 % of control; (dose: 5.0 mg/kg/injection, schedule: Q01DX009 (ip), vehicle: Klucel (hydroxypropylcellulose) (HPC)) 95 % of control; (dose: 5.0 mg/kg/injection, schedule: Q01DX009 (ip), vehicle: saline) 113 % of control. Besides, the T/C is, setting by setting: (dose: 5.0 mg/kg/injection, schedule: Q04DX003 (ip), vehicle: saline) 101 % of control; (dose: 10.0 mg/kg/injection, schedule: Q01DX009 (ip), vehicle: Klucel (hydroxypropylcellulose) (HPC)) 100 % of control; (dose: 10.0 mg/kg/injection, schedule: Q01DX009 (ip), vehicle: saline) 121 % of control; (dose: 10.0 mg/kg/injection, schedule: Q04DX003 (ip), vehicle: saline) 124 % of control; (dose: 20.0 mg/kg/injection, schedule: Q01DX009 (ip), vehicle: Klucel (hydroxypropylcellulose) (HPC)) 111 % of control; (dose: 20.0 mg/kg/injection, schedule: Q01DX009 (ip), vehicle: saline) 90 % of control. The T/C is 101 % of control (dose: 20.0 mg/kg/injection, schedule: Q04DX003 (ip), vehicle: saline); 90 % of control (dose: 40.0 mg/kg/injection, schedule: Q01DX009 (ip), vehicle: saline); 101 % of control (dose: 40.0 mg/kg/injection, schedule: Q04DX003 (ip), vehicle: saline); 110 % of control (dose: 80.0 mg/kg/injection, schedule: Q04DX003 (ip), vehicle: Klucel (hydroxypropylcellulose) (HPC)); 106 % of control (dose: 160.0 mg/kg/injection, schedule: Q04DX003 (ip), vehicle: Klucel (hydroxypropylcellulose) (HPC)).
For the molecule `CC1=CC(=O)NP(=O)(OC2CCCCC2)N1` (configuration not stated), under “dose: 100.0 mg/kg/injection, schedule: Q01DX005 (ip), vehicle: sodium bicarbonate”, the T/C is 91 % of control.
With `CCCCCC(C)(O)CCCCC`, the T/C by setting is: (dose: 100.0 mg/kg/injection, schedule: Q01DX001 (ip), vehicle: carboxymethylcellulose (CMC)) 101 % of control; (dose: 200.0 mg/kg/injection, schedule: Q01DX001 (ip), vehicle: carboxymethylcellulose (CMC)) 97 % of control; (dose: 400.0 mg/kg/injection, schedule: Q01DX001 (ip), vehicle: carboxymethylcellulose (CMC)) 97 % of control.
As for `O=NN(CC(Cl)CN(N=O)C(=O)NC1CCCCC1)C(=O)NC1CCCCC1`, the T/C is 97 % of control (dose: 8.0 mg/kg/injection, schedule: Q01DX001 (ip), vehicle: other); 108 % of control (dose: 16.0 mg/kg/injection, schedule: Q01DX001 (ip), vehicle: other); 90 % of control (dose: 31.0 mg/kg/injection, schedule: Q01DX001 (ip), vehicle: other); 100 % of control (dose: 62.0 mg/kg/injection, schedule: Q01DX001 (ip), vehicle: other); 95 % of control (dose: 125.0 mg/kg/injection, schedule: Q01DX001 (ip), vehicle: other); 92 % of control (dose: 250.0 mg/kg/injection, schedule: Q01DX001 (ip), vehicle: other). Also, the T/C runs as follows: (dose: 500.0 mg/kg/injection, schedule: Q01DX001 (ip), vehicle: other) 97 % of control; (dose: 750.0 mg/kg/injection, schedule: Q01DX001 (ip), vehicle: other) 102 % of control; (dose: 1000.0 mg/kg/injection, schedule: Q01DX001 (ip), vehicle: other) 102 % of control.
Take `COC1(OC)CCC=C(CNc2ncnc3nc[nH]c23)C1`: the T/C under setting [7] was 102 % of control, the T/C under setting [8] is 94 % of control and the T/C under setting [9] was 100 % of control.
On to `Cc1cc2c(cn1)C(=O)C=CC2=O`, for which the T/C runs as follows: (dose: 5.0 mg/kg/injection, schedule: Q01DX001 (ip), vehicle: carboxymethylcellulose (CMC)) 94 % of control; (dose: 10.0 mg/kg/injection, schedule: Q01DX001 (ip), vehicle: carboxymethylcellulose (CMC)) 96 % of control.
For the molecule `Cc1[nH]nc(-c2cccnc2)c1N=NN1CCC(C(N)=O)CC1`, under “dose: 75.0 mg/kg/injection, schedule: Q01DX001 (ip), vehicle: other”, the T/C is 103 % of control.
Turning to `OC(CCN1CCOCC1)c1cc2ccccc2o1` (configuration not stated), the T/C runs as follows: (dose: 75.0 mg/kg/injection, schedule: Q04DX003 (ip), vehicle: saline with Tween-80) 102 % of control; (dose: 150.0 mg/kg/injection, schedule: Q04DX003 (ip), vehicle: saline with Tween-80) 100 % of control.
For the molecule `NC(=S)NNC(=O)CN1C(=O)c2ccccc2C1=O`, the T/C runs as follows: (dose: 100.0 mg/kg/injection, schedule: Q01DX001 (ip), vehicle: Klucel (hydroxypropylcellulose) (HPC)) 102 % of control; (dose: 200.0 mg/kg/injection, schedule: Q01DX001 (ip), vehicle: Klucel (hydroxypropylcellulose) (HPC)) 105 % of control; (dose: 400.0 mg/kg/injection, schedule: Q01DX001 (ip), vehicle: Klucel (hydroxypropylcellulose) (HPC)) 102 % of control.
In the case of `CC(=O)OCCOc1cccc(C)c1`, the T/C runs as follows: (dose: 100.0 mg/kg/injection, schedule: Q04DX002 (ip), vehicle: saline) 114 % of control; (dose: 200.0 mg/kg/injection, schedule: Q04DX002 (ip), vehicle: saline) 96 % of control; (dose: 400.0 mg/kg/injection, schedule: Q04DX002 (ip), vehicle: saline) 107 % of control.

The record behind these values is PubChem BioAssay AID248 (DTP/NCI, 2004).
